Data on 15 compounds can be found in patent US6509153B1, “Genetic markers of toxicity preparation and uses” (Exonhit Therapeutics SA, priority 1999, dated 2003).

Molecules are shown by their SMILES. Counter-ions that a name gives are not always drawn.

Tested on in one data set: not listed separately
The data set is described as follows: cell viability test (MTT) used to calculate the IC80 concentration. Type of data set: cell-based. The following applies: human; HepG2 cells, exposure time 4 h; read-out: Concentration (corresponds to an IC80, MTT). From the text: (§1) HepG2 cells are then individually treated with different compounds with different levels of toxicity.
`CC[C@@]1(O)C(=O)OCc2c1cc1n(c2=O)Cc2cc3ccccc3nc2-1` [Camptothecin]: the IC80 at 4 h is 1 µg/mL.
On to `CCO` [Ethanol], for which the IC80 at 4 h is 100000 µM.

The same data set, now with this note: human; HepG2 cells, exposure time 18 h; read-out: Concentration (corresponds to an IC80, MTT).
In the case of `CC(=O)Nc1ccc(O)cc1` [Paracetamol], the IC80 at 18 h is 1000 µM.
`COc1cc([C@@H]2c3cc4c(cc3[C@@H](O[C@@H]3O[C@@H]5CO[C@@H](C)O[C@H]5[C@H](O)[C@H]3O)[C@H]3COC(=O)[C@H]23)OCO4)cc(OC)c1O` [Etoposide]: the IC80 at 18 h was 50 µg/mL.
Same read-out and setting: the figure for `C[C@@H]1C[C@@H]([C@H](O)CC2CC(=O)NC(=O)C2)C(=O)[C@@H](C)C1` [Cycloheximide] is 5 µg/mL; for `CC(=O)Oc1ccccc1C(=O)O` [Aspirin] it is 2000 µM.
Turning to `CN[C@@H]1C[C@H]2O[C@@](C)([C@@H]1OC)n1c3ccccc3c3c4c(c5c6ccccc6n2c5c31)C(=O)NC4` [Staurosporine], the IC80 was 0.05 µM.
Regarding `CNC[C@H](O)c1ccc(O)c(O)c1` [Epinephrine Hydrate], the IC80 at 18 h is 50 µg/mL.
On to `Clc1cccc(Cl)c1N=C1NCCN1` [Clonidine], for which the IC80 at 18 h is 150 µM.
As to `CC[C@]1(O)C[C@@H]2CN(CCc3c([nH]c4ccccc34)[C@@](C(=O)OC)(c3cc4c(cc3OC)N(C)[C@H]3[C@@](O)(C(=O)OC)[C@H](OC(C)=O)[C@]5(CC)C=CCN6CC[C@]43[C@@H]65)C2)C1` [Vinblastine Sulfate], the IC80 at 18 h was 30 µM.
Take `O=C(O)Cc1ccccc1Nc1c(Cl)cccc1Cl` [Diclofenac]: the IC80 at 18 h was 50 µg/mL.
Take `CC(C)(C)NCC(O)c1cc(O)cc(O)c1` (stereo not shown) [Terbutaline Sulfate]: the IC80 at 18 h is 0.2 µg/mL.
As for `CC(C)[C@@H]1NC(=O)[C@H](C)OC(=O)[C@@H](C(C)C)NC(=O)[C@@H](C(C)C)OC(=O)[C@H](C(C)C)NC(=O)[C@H](C)OC(=O)[C@@H](C(C)C)NC(=O)[C@@H](C(C)C)OC(=O)[C@H](C(C)C)NC(=O)[C@H](C)OC(=O)[C@@H](C(C)C)NC(=O)[C@@H](C(C)C)OC1=O` [Valinomycin], the IC80 at 18 h was 0.015 µM.
In the case of `CC[C@H]1OC(=O)[C@H](C)[C@@H](O[C@H]2C[C@@](C)(OC)[C@@H](O)[C@H](C)O2)[C@H](C)[C@@H](O[C@@H]2O[C@H](C)C[C@H](N(C)C)[C@H]2O)[C@](C)(O)C[C@@H](C)C(=O)[C@H](C)[C@@H](O)[C@]1(C)O` [Erythromycin], the IC80 at 18 h was 2.5 µg/mL.
The same measure, in the same setting: the figure for `CN(Cc1cnc2nc(N)nc(N)c2n1)c1ccc(C(=O)N[C@@H](CCC(=O)O)C(=O)O)cc1` [Methotrexate] is 0.5 µM.

A further data set has as its system HepG2 cells. The experiment in a line: hybridization of probes from treated HepG2 cells on p53 apoptosis filter (toxicity index). The format is cell-based. As to conditions: HepG2 cells treated at IC80 concentration, compared with aspirin.
Source text: as §1
With `O=C(O)Cc1ccccc1Nc1c(Cl)cccc1Cl` [Diclofenac], the “splicing events identical to those induced by p53-related toxicity (toxicity index ranking)” value was “generates more splicing events identical to those induced by p53 -related toxicity than aspirin”.
